Measurements from the NIST ThermoML archive (doi:10.1021/je060107n).
± gives the expanded uncertainty stated by the source.

Experiment: mn = molality of the nth substance listed, in mol/kg
Conditions: 101 kPa, Liquid; for mass density: Pycnometric method; for viscosity: Capillary tube (Ostwald / Ubbelohde) method; for speed of sound: Linear variable-path acoustic interferometer

CC(=O)[O-].CC(=O)[O-].[Mg+2] [magnesium acetate] + O
Conditions	mass density [kg/m3]	speed of sound [m/s]	viscosity [mPa·s]
305.5 K, m1 = 1.866	1115.1 ± 0.8	–	–
305.65 K, m1 = 0.646	1041.8 ± 0.7	–	–
305.85 K, m1 = 1.354	1086.1 ± 0.7	–	–
305.85 K, m1 = 5.732	1263.4 ± 0.9	–	–
305.95 K, m1 = 0.0831	1001 ± 0.6	–	–
305.95 K, m1 = 0.8751	1056.2 ± 0.7	–	–
306.3 K, m1 = 0.4247	1026.1 ± 0.7	–	–
306.4 K, m1 = 3.043	1171.3 ± 0.8	–	–
306.4 K, m1 = 3.437	1191.7 ± 0.8	–	–
306.55 K, m1 = 1.608	1101.3 ± 0.7	–	–
306.65 K, m1 = 5.165	1247 ± 0.9	–	–
306.75 K, m1 = 3.819	1203.4 ± 0.8	–	–
306.9 K, m1 = 0.1671	1007 ± 0.6	–	–
307.25 K, m1 = 2.134	1128.6 ± 0.8	–	–
307.5 K, m1 = 2.622	1152.1 ± 0.7	–	–
307.6 K, m1 = 4.547	1227.3 ± 0.9	–	–
307.65 K, m1 = 0.0414	997.17 ± 0.65	–	–
307.75 K, m1 = 1.327	1084 ± 0.7	–	–
308.05 K, m1 = 1.866	1114 ± 0.7	–	–
308.1 K, m1 = 1.106	1071.4 ± 0.7	–	–
308.15 K, m1 = 0.0414	–	1523.3 ± 1.9	0.7529 ± 0.01
308.15 K, m1 = 0.0831	–	1530.3 ± 1.9	0.7775 ± 0.01
308.15 K, m1 = 0.1671	–	1541.4 ± 1.9	0.8306 ± 0.011
308.15 K, m1 = 0.4247	–	1575.1 ± 1.9	1.021 ± 0.014
308.15 K, m1 = 0.646	–	1601.9 ± 1.9	1.231 ± 0.016
308.15 K, m1 = 0.8751	–	1631.2 ± 1.9	1.45 ± 0.019
308.15 K, m1 = 1.106	–	1655.9 ± 1.9	1.774 ± 0.024
308.15 K, m1 = 1.354	–	1677.9 ± 2	2.139 ± 0.029
308.15 K, m1 = 1.608	–	1705 ± 2	2.139 ± 0.029
308.15 K, m1 = 1.866	–	1728.9 ± 2	3.181 ± 0.043
308.15 K, m1 = 2.134	–	1754.2 ± 2	3.943 ± 0.054
308.15 K, m1 = 2.411	–	1782.5 ± 2	5.121 ± 0.071
308.15 K, m1 = 2.622	–	1791.3 ± 2	5.819 ± 0.081
308.15 K, m1 = 3.043	–	1819.5 ± 2.1	8.11 ± 0.12
308.15 K, m1 = 3.437	–	1847.8 ± 2.1	12.3 ± 0.18
308.15 K, m1 = 3.819	–	1862.6 ± 2.1	–
308.15 K, m1 = 4.001	–	–	19.17 ± 0.29
308.15 K, m1 = 4.547	–	1888.8 ± 2.1	–
308.15 K, m1 = 4.563	–	–	31.43 ± 0.5
308.15 K, m1 = 4.929	–	–	39.25 ± 0.67
308.15 K, m1 = 5.165	–	1908 ± 2.1	–
308.15 K, m1 = 5.41	–	–	72.56 ± 0.96
308.15 K, m1 = 5.732	–	1914.4 ± 2.1	96.97 ± 2
308.15 K, m1 = 6.187	–	–	175.6 ± 4.6
308.45 K, m1 = 6.187	1274.5 ± 0.9	–	–
308.65 K, m1 = 0.646	1040.7 ± 0.7	–	–
308.65 K, m1 = 1.354	1085 ± 0.7	–	–
308.7 K, m1 = 3.437	1190.5 ± 0.9	–	–
308.75 K, m1 = 0.8751	1055.2 ± 0.7	–	–
308.75 K, m1 = 3.043	1170.1 ± 0.8	–	–
308.85 K, m1 = 5.165	1245.6 ± 0.9	–	–
308.9 K, m1 = 0.0831	1000 ± 0.6	–	–
308.95 K, m1 = 3.819	1202.2 ± 0.8	–	–
309.1 K, m1 = 2.411	1142.9 ± 0.8	–	–
309.25 K, m1 = 0.4247	1025.2 ± 0.7	–	–
309.6 K, m1 = 1.608	1100.1 ± 0.7	–	–
309.7 K, m1 = 0.1671	1006 ± 0.7	–	–
309.7 K, m1 = 4.547	1225.9 ± 0.9	–	–
309.7 K, m1 = 5.732	1260.8 ± 0.9	–	–
309.8 K, m1 = 2.134	1127.4 ± 0.7	–	–
309.95 K, m1 = 2.622	1151 ± 0.7	–	–
310.45 K, m1 = 6.187	1273.1 ± 0.9	–	–
310.6 K, m1 = 1.327	1082.8 ± 0.7	–	–
310.7 K, m1 = 1.106	1070.3 ± 0.7	–	–
310.8 K, m1 = 6.545	1280.7 ± 0.9	–	–
310.85 K, m1 = 0.0414	996.1 ± 0.65	–	–
310.85 K, m1 = 3.437	1189.2 ± 0.8	–	–
310.95 K, m1 = 5.165	1244.3 ± 0.9	–	–
311.2 K, m1 = 3.819	1201 ± 0.8	–	–
311.25 K, m1 = 3.043	1168.8 ± 0.8	–	–
311.35 K, m1 = 0.646	1039.6 ± 0.7	–	–
311.4 K, m1 = 1.354	1083.9 ± 0.7	–	–
311.65 K, m1 = 0.8751	1054 ± 0.7	–	–
311.85 K, m1 = 0.0831	998.98 ± 0.66	–	–
311.9 K, m1 = 4.547	1224.6 ± 0.8	–	–
312.1 K, m1 = 0.4247	1024 ± 0.7	–	–
312.15 K, m1 = 1.608	1099 ± 0.7	–	–
312.3 K, m1 = 6.187	1271.8 ± 0.9	–	–
312.45 K, m1 = 2.134	1126.3 ± 0.8	–	–
312.55 K, m1 = 0.1671	1004.8 ± 0.7	–	–
312.55 K, m1 = 2.622	1149.7 ± 0.8	–	–
312.7 K, m1 = 6.545	1279.4 ± 0.9	–	–
313.15 K, m1 = 0.0414	–	1532.2 ± 1.9	0.6835 ± 0.009
313.15 K, m1 = 0.0831	–	1539 ± 1.9	0.7037 ± 0.0093
313.15 K, m1 = 0.1671	–	1547.7 ± 1.9	0.7523 ± 0.0099
313.15 K, m1 = 0.4247	–	1582.3 ± 1.9	0.9195 ± 0.012
313.15 K, m1 = 0.646	–	1607.4 ± 1.9	1.105 ± 0.015
313.15 K, m1 = 0.8751	–	1635.6 ± 1.9	1.294 ± 0.017
313.15 K, m1 = 1.106	–	1659.1 ± 2	1.573 ± 0.021
313.15 K, m1 = 1.354	–	1679.3 ± 2	1.887 ± 0.025
313.15 K, m1 = 1.608	–	1704.6 ± 2	1.887 ± 0.025
313.15 K, m1 = 1.866	–	1728.4 ± 2	2.771 ± 0.037
313.15 K, m1 = 2.134	–	1752.5 ± 2	3.404 ± 0.046
313.15 K, m1 = 2.411	–	1778.6 ± 2	4.373 ± 0.06
313.15 K, m1 = 2.622	–	1787.1 ± 2	4.948 ± 0.068
313.15 K, m1 = 3.043	–	1815 ± 2.1	6.797 ± 0.095
313.15 K, m1 = 3.437	1188 ± 0.8	1840.3 ± 2.1	10.13 ± 0.15
313.15 K, m1 = 3.819	–	1854.1 ± 2.1	–
313.15 K, m1 = 4.001	–	–	15.43 ± 0.23
313.15 K, m1 = 4.547	–	1878.9 ± 2.1	–
313.15 K, m1 = 4.563	–	–	24.53 ± 0.38
313.15 K, m1 = 4.929	–	–	30.41 ± 0.5
313.15 K, m1 = 5.165	–	1896 ± 2.1	–
313.15 K, m1 = 5.41	–	–	54.06 ± 0.68
313.15 K, m1 = 5.732	–	–	71.46 ± 1.3
313.15 K, m1 = 6.187	–	–	120 ± 2.8
313.35 K, m1 = 0.0414	995.14 ± 0.68	–	–
313.45 K, m1 = 1.327	1081.7 ± 0.7	–	–
313.45 K, m1 = 1.866	1111.6 ± 0.8	–	–
313.45 K, m1 = 3.819	1199.8 ± 0.8	–	–
313.5 K, m1 = 1.106	1069.1 ± 0.7	–	–
313.5 K, m1 = 3.043	1167.6 ± 0.8	–	–
313.55 K, m1 = 5.732	1258.3 ± 0.9	–	–
314 K, m1 = 4.547	1223.4 ± 0.8	–	–
314.05 K, m1 = 1.354	1082.8 ± 2.5	–	–
314.1 K, m1 = 2.411	1140.6 ± 0.8	–	–
314.25 K, m1 = 0.646	1038.6 ± 0.7	–	–
314.25 K, m1 = 6.187	1270.4 ± 0.9	–	–
314.3 K, m1 = 0.8751	1052.9 ± 0.7	–	–
314.35 K, m1 = 0.0831	997.91 ± 0.67	–	–
314.5 K, m1 = 6.545	1278.1 ± 0.9	–	–
314.65 K, m1 = 0.4247	1022.9 ± 0.7	–	–
